Reference: PMC4140855, “Production of an Attenuated Phenol-Soluble Modulin Variant Unique to the MRSA Clonal Complex 30 Increases Severity of Bloodstream Infection” (PLoS Pathogens, 2014)

How the values were obtained:
FPR1 = biological target: T1, FPR1 (Homo sapiens, UniProt P21462); experiment: Ca2+ flux in HL60 cells stably transfected with FPR1; assay type: cell-based
T1 construct: expressed in transfected cells; host or cells: HL60 cells, stably transfected
T1 sequence (P21462 1-350): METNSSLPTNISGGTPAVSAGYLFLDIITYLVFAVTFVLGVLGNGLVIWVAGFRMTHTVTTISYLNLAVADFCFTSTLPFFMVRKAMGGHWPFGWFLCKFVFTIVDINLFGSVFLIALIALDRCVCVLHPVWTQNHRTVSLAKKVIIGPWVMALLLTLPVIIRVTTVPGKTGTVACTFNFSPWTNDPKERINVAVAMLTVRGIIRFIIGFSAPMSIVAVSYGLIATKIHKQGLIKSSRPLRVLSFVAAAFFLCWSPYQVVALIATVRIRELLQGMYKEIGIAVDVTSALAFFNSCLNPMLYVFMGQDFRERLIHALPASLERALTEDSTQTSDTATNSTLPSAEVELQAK
Method: (§1) Next, we analyzed Ca^2+ flux as a general measure to test for neutrophil activation, as used in previous studies. HL60 cells stably transfected with different FPR receptor genes were used to determine which FPR receptors are differentially activated by PSMα3 versus PSMα3N22Y (Fig. 4A). […] At a peptide concentration of 100 nM, we observed a difference of ∼factor 2 in chemotactic activity comparing the two peptides when FPR1 recognition was inhibited by CHIPS, likely attributable to FPR2-mediated recognition. Owing to the overall ∼10 times lower capacity to stimulate FPR receptors other than FPR2, we observed no chemotaxis at that peptide concentration with addition of the FPR2 blocking agent FLIPr.
(A) Differential activation of FPRs by PSMα3 versus PSMα3N22Y was measured using synthetic peptides and Ca^2+ flux observed in HL60 cells stably transfected with the corresponding FPR genes as readout, using three biological and two technical replicates. The calculated Kd values are shown on the right. […] (B) Ca^2+ flux in human neutrophils upon addition of PSMα3 or PSMα3N22Y and inhibition by FLIPr (FPR2 inhibitor) or CHIPS (FPR1 inhibitor). […]
Human neutrophils were isolated from venous blood of healthy donors as described, [39]. Neutrophil chemotaxis and Ca^2+ flux were determined as previously described, [24]. […] Chemotaxis of neutrophils was determined using a transwell system (Costar) with analysis of neutrophil migration using fluorescence labeling. Calcium fluxes were monitored as a surrogate marker for chemotaxis since it can be measured more robustly and accurately than chemotaxis. For measurement of Ca^2+ fluxes, 5×10^6 neutrophils/ml were labeled with a fluorescent dye and analyzed with a FACScalibur (Becton Dickinson) as described. […] Measurements of 2,000 events were performed and Ca^2+ flux was expressed as relative fluorescence corrected for buffer controls. […] At the desired times, PMN lysis was determined by release of lactate dehydrogenase (LDH) (Cytotoxicity Detection Kit, Roche Applied Sciences).

FPR3 = biological target: T2, FPR3 (Homo sapiens, UniProt P25089); experiment: Ca2+ flux in HL60 cells stably transfected with FPR3; assay type: cell-based; settings: one site-binding model from Ca2+ flux, synthetic peptides, three biological and two technical replicates, error = standard deviation
T2 construct: expressed in transfected cells; host or cells: HL60 cells, stably transfected
T2 sequence (P25089 1-353): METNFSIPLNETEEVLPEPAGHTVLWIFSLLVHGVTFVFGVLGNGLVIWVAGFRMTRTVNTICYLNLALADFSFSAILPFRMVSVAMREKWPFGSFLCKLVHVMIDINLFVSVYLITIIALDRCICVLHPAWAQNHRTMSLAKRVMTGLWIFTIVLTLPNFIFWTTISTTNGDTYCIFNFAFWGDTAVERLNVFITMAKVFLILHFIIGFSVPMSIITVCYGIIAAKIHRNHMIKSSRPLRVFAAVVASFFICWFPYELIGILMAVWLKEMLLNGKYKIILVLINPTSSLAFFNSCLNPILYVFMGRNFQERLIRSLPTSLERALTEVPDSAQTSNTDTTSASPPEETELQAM
Method: as §1, with “Owing to the overall ∼10 times lower capacity to stimulate FPR receptors other than FPR2, we observed no chemotaxis at that peptide concentration with addition of the FPR2 blocking agent FLIPr.” left out
(A) Differential activation of FPRs by PSMα3 versus PSMα3N22Y was measured using synthetic peptides and Ca^2+ flux observed in HL60 cells stably transfected with the corresponding FPR genes as readout, using three biological and two technical replicates. The calculated Kd values are shown on the right. […]
Human neutrophils were isolated from venous blood of healthy donors as described, [39]. Neutrophil chemotaxis and Ca^2+ flux were determined as previously described, [24]. […] Chemotaxis of neutrophils was determined using a transwell system (Costar) with analysis of neutrophil migration using fluorescence labeling. Calcium fluxes were monitored as a surrogate marker for chemotaxis since it can be measured more robustly and accurately than chemotaxis. […] Measurements of 2,000 events were performed and Ca^2+ flux was expressed as relative fluorescence corrected for buffer controls. […]

## CSCC[C@H](NC=O)C(=O)N[C@@H](CCC(=O)O)C(=O)N[C@@H](Cc1ccccc1)C(=O)N[C@H](C(=O)N[C@@H](C)C(=O)N[C@@H](CCCCN)C(=O)N[C@@H](CC(C)C)C(=O)N[C@@H](Cc1ccccc1)C(=O)N[C@@H](CCCCN)C(=O)N[C@@H](Cc1ccccc1)C(=O)N[C@@H](Cc1ccccc1)C(=O)N[C@@H](CCCCN)C(=O)N[C@@H](CC(=O)O)C(=O)N[C@@H](CC(C)C)C(=O)N[C@@H](CC(C)C)C(=O)NCC(=O)N[C@@H](CCCCN)C(=O)N[C@@H](Cc1ccccc1)C(=O)N[C@@H](CC(C)C)C(=O)NCC(=O)N[C@@H](CC(N)=O)C(=O)N[C@@H](Cc1ccc(O)cc1)C(=O)O)C(C)C [PSMα3N22Y]
FPR1; Ca2+ flux, transfected HL60 cells, not FPR2 and FPR3
  Differential activation of FPR receptors by the two peptides: only FPR1 was activated differentially
FPR1; one site-binding model from Ca2+ flux, synthetic peptides, FPR1-transfected HL60 cells, three biological and two technical replicates, error = standard deviation
  Kd: 3040 ± 682 nM
FPR1; significant difference
  Factor of difference in FPR1 Kd, PSMα3 versus PSMα3N22Y: ~5
FPR3
  Kd: 953 ± 254 nM
